Assays:
Assay in all cases: Contact-killing assay (adapted from ISO 22196) on allyl-TPU blade-coated samples modified with Qx-SH
E. coli = format: cell-based, Escherichia coli (ATCC 25922); conditions: for log reduction in E. coli compared to the negative control / reduction in E. coli compared to the negative control: 24 h contact-killing assay; for Mean CFU/Sample Recovered, E. coli: n = 2, negative control polypropylene 2.04 (±0.06) × 10^6
Description: (§1) To functionalize the allyl-TPU blade-coated samples with Qx-SH reagents, thiol-ene reactions were performed using the same procedure described for rhodamine-SH. Briefly, blade-coated films of allyl-TPU (250 μm thick, 2.0 cm diameter, ca. 110 mg, 20 μmol allyl) were submerged in 2 mL of an Ar purged (30 min) aqueous solution containing Qx-SH (10.0 mM) and LAP (5.0 mM), and allowed to pre-soak for 30 min under Ar. UV-treated samples were irradiated for 30 min (λ=365 nm, I=1.2 mW·cm^−2) while phys. ads. samples were kept in the absence of UV light for 30 min to control for any antimicrobial activity that is contributed by non-covalently attached QAC. Following treatment, the dye/photoinitiator solutions were drawn up and discarded, and the samples were rinsed with 5 mL of DI water (3×) then submerged in 5 mL of DI water. The samples were further rinsed with 10% EtOH (3×) and soaked in 10% EtOH for 15 min (3×), rinsing with 10% EtOH in between each soak.
(§2) For antimicrobial testing, blade-coated samples and catheter tubing of allyl-TPU were sterilized by EtO sterilization using an Anprolene benchtop sterilizer (Anderson Products, Inc., Haw River, N.C.) following the manufacturer's protocol to deliver approximately 0.5 cc·L^−1 of EtO gas over a 12 h sterilization cycle at 35% humidity and room temperature, followed by a 48 h purge under vacuum. The bacterial strains used in this study included Staphylococcus epidermidis (ATCC 12228), Staphylococcus aureus (25923), Escherichia coli (ATCC 25922), Pseudomonas aeruginosa (ATCC 27853), Enterococcus faecalis (ATCC 29212), and methicillin-resistant Staphylococcus aureus (MRSA) (ATCC BAA-41).
The contact-killing assay was performed on physically adsorbed (phys. ads.), and UV-treated blade-coated samples modified with a series of Qx-SH reagents using a method adapted from ISO 22196. See, International Organization for Standardization. Measurement of antibacterial activity on plastics and other non porous surfaces (ISO 22196:2011), the disclosure of which is incorporated herein by reference in its entirety. Briefly, the samples were inoculated with same day cultures of select bacteria (e.g. E. coli, S. epidermidis) in dilute nutrient media (0.2% tryptic soy broth (TSB) in 1× phosphate buffered saline (PBS)) at approximately 150 colony-forming units (CFU)·mm^−2. Generally, 35 uL of 8.5×10^5 CFU/mL cultures were dispersed across the surface of the sample using sterile polypropylene cover films (area=198 mm^2). […] Following incubation, surviving cells were recovered from the samples using vigorous agitation (i.e. vortexing for 20 s in PBS). Surviving cells were enumerated via 10-fold series dilution and plating 100 μL onto tryptic soy agar (TSA), incubating overnight and then plate counting CFU. The mean CFU recovered per sample (CFU/sample) were calculated by accounting for dilutions. Internal controls samples of polypropylene and chlorhexidine treated with polypropylene were included in the assay.

E. faecalis = format: cell-based, Enterococcus faecalis (ATCC 29212); conditions: n = 1, negative control polypropylene 1.70 × 10^5
Description: as §1, §2
(§3) The contact-killing assay was performed on physically adsorbed (phys. ads.), and UV-treated blade-coated samples modified with a series of Qx-SH reagents using a method adapted from ISO 22196. See, International Organization for Standardization. Measurement of antibacterial activity on plastics and other non porous surfaces (ISO 22196:2011), the disclosure of which is incorporated herein by reference in its entirety. Briefly, the samples were inoculated with same day cultures of select bacteria (e.g. E. coli, S. epidermidis) in dilute nutrient media (0.2% tryptic soy broth (TSB) in 1× phosphate buffered saline (PBS)) at approximately 150 colony-forming units (CFU)·mm^−2. Generally, 35 uL of 8.5×10^5 CFU/mL cultures were dispersed across the surface of the sample using sterile polypropylene cover films (area=198 mm^2). Inoculated samples were incubated in a humidified room air incubator (36° C., ca. 80% rel. humidity) for 20 h. Following incubation, surviving cells were recovered from the samples using vigorous agitation (i.e. vortexing for 20 s in PBS). Surviving cells were enumerated via 10-fold series dilution and plating 100 μL onto tryptic soy agar (TSA), incubating overnight and then plate counting CFU. The mean CFU recovered per sample (CFU/sample) were calculated by accounting for dilutions. Internal controls samples of polypropylene and chlorhexidine treated with polypropylene were included in the assay.

P. aeruginosa = format: cell-based, Pseudomonas aeruginosa (ATCC 27853); conditions: for Mean CFU/Sample Recovered, P. aeruginosa: n = 1, negative control polypropylene 7.94 × 10^6
Description: as §1, §2, §3

## CCCCCCCC[N+](C)(C)CCCCCCCCOC(=O)CCS.[Cl-] [Q8-SH]
E. coli; UV-treated samples
  log reduction in E. coli compared to the negative control: 6 log
  reduction in E. coli compared to the negative control: 99.9999%
  Mean CFU/Sample Recovered, E. coli: 0.00 ± 0.00 CFU/Sample
E. coli; phys. ads. samples
  log reduction in E. coli compared to the negative control: 6 log
  reduction in E. coli compared to the negative control: 99.9999%
  Mean CFU/Sample Recovered, E. coli: 0.00 ± 0.00 CFU/Sample
E. faecalis; UV-treated samples
  Mean CFU/Sample Recovered, E. faecalis: 0.00 CFU/Sample
E. faecalis; phys. ads. samples
  Mean CFU/Sample Recovered, E. faecalis: 0.00 CFU/Sample
P. aeruginosa; UV-treated samples
  reduction of P. aeruginosa: complete reduction
  Mean CFU/Sample Recovered, P. aeruginosa: 0.00 CFU/Sample
P. aeruginosa; phys. ads. samples
  reduction of P. aeruginosa: complete reduction
  Mean CFU/Sample Recovered, P. aeruginosa: 0.00 CFU/Sample
